The source of these data is patent US9050315B2, “In vivo and ex vivo expansion of hematopoietic stem cells with a targeted combination of clinically tested, FDA approved drugs” (The Trustees of the University of Pennsylvania, priority 2010, dated 2015).

Entries after “also recorded” stand apart in the source; their conditions may differ.

In one data set the test system is c-Kit+ cells. The data set is described as follows: Colony formation assay in methylcellulose with hematopoietic cytokines. In kind it is cell-based, mice. The conditions noted are these: c-Kit+ cells treated 3 days ex vivo, then methylcellulose 10-14 days. How it is done: The primary cultures are shown.
Methylcellulose culture: Sorted GFP^+ BM cells were plated in individual wells of 6-well plates (Corning) containing 550 μl 1.0% methylcellulose (Stem Cell Technologies) as previously described (Trowbridge, et al., 2006, Nature. 441:518-522). The methylcellulose was supplemented with 1% penicillin/streptomycin (Gibco; Invitrogen), 50 ng/ml SCF, 10 ng/ml IL-3, 10 ng/ml IL-6, and 3 U/ml erythropoietin. Colonies were incubated at 37° C. in humidified incubators at 5% CO2. Colony formation was scored by counting all colonies of greater than 30 viable cells after 10-14 days of culture.
To test whether progenitor cells are increased by lithium treatment, colony formation assays were performed. […] To confirm these studies, bone marrow cells were isolated from lithium treated mice and cultured in methylcellulose with hematopoietic cytokines.

In another data set the test system is LSK cells. To be noted: cited from earlier work.

Regarding `O=C1Nc2cc(Br)ccc2/C1=C1/Nc2ccccc2/C1=N\O` [6BIO, 6-bromo-indirubin 3′-oxime], the hematopoietic colony number result with c-Kit+ cells is reported as “marked increase; also recorded: increased”. Also, the “HSCs measured by long-term competitive repopulation assay” value in the data set with LSK cells (mice, Goessling et al. 2009) is “increases HSCs”. The overall marrow cellularity result with LSK cells (HSCs/HPCs) (mice treated 2 weeks, vs control) is reported as “increased marrow cellularity; also recorded: parallel increase”. In addition, in the data set with LSK cells (HSCs/HPCs) (mice treated 2 weeks, vs control (NaCl for lithium), FCM), the “number of LSK cells in bone marrow” value is “pronounced increase; also recorded: increased”. The “bone marrow morphology / architecture” value in the data set with LSK cells (HSCs/HPCs) (treated versus control marrows) is on record as “no observable change”.
As to `COc1ccc(CNC(=O)Nc2ncc([N+](=O)[O-])s2)cc1` [AR-A014418], in the data set with c-Kit+ cells, the hematopoietic colony number result is “marked increase; also recorded: increased”.
Turning to `Cc1c[nH]c(-c2cnc(NCCNc3ccc(C#N)cn3)nc2-c2ccc(Cl)cc2Cl)n1` [CHIR-911], in the data set on LSK cells (treated mice, Trowbridge et al. 2006), the “increase in LSK cells” value is reported as “approximately 50%”.
